Converted amounts (≈) assume the structure as drawn.
Columns and labels:
[1] = test system: Mycobacterium tuberculosis; assay: Antitubercular activity against Mycobacterium tuberculosis H37Rv ATCC 27294 cultured in 7H9/ADC/Tw media assessed as inhibition of bacterial growth incubated for 7 days; format: functional; conditions: H37Rv ATCC 27294, 168 h, time 7 day
[2] = test system: Mycobacterium tuberculosis; assay: Antitubercular activity against Mycobacterium tuberculosis H37Rv ATCC 27294 cultured in GAST/Fe media assessed as inhibition of bacterial growth incubated for 7 days; format: functional; conditions: H37Rv ATCC 27294, 168 h, time 7 day
[3] = Stability in mouse plasma assessed as half life; format: ADME, cell-free
[4] = Protein binding in mouse plasma assessed as free fraction; format: ADME, cell-free
[5] = Drug metabolism in mouse plasma assessed as 2-(4-methoxyphenyl)benzo[d]oxazol-5-amine formation; format: ADME, cell-free
[6] = test system: Mycobacterium tuberculosis; assay: Antitubercular activity against Mycobacterium tuberculosis H37Rv ATCC 27294 cultured in 7H9/DPPC/casitone/Tx media assessed as inhibition of bacterial growth incubated for 7 days; format: functional; conditions: H37Rv ATCC 27294, 168 h, time 7 day

SMILES | MIC [1] [µM] | MIC [2] [µM] | half-life [3] [h] | fraction unbound [4] | Drug metabolism [5] | MIC [6] [µM] | Fu [4] [%]
COc1ccc(-c2nc3cc(N)ccc3o2)cc1 | ≥ 12.5 | – | – | – | – | – | –
N[C@@H](CC(=O)Nc1ccc2oc(-c3ccc(O)cc3)nc2c1)Cc1ccccc1 | 19 (≈ 7.36 µg/mL) | 19 (≈ 7.36 µg/mL) | – | – | – | – | –
N[C@H](Cc1ccccc1)C(=O)Nc1ccc2oc(-c3ccc(O)cc3)nc2c1 | 1.2 (≈ 0.448 µg/mL) | 2.3 (≈ 0.859 µg/mL) | – | – | – | – | –
C#CCOc1ccc(-c2nc3cc(NC(=O)[C@H](N)Cc4ccccc4)ccc3o2)cc1 | 1.2 (≈ 0.494 µg/mL) | – | 5 | < 0.004 | – | – | –
COc1ccc(-c2nc3cc(NC(=O)[C@H](N)Cc4ccccc4)ccc3o2)cc1 | 1.56 (≈ 0.604 µg/mL) | 1.56 (≈ 0.604 µg/mL) | 0.417 | – | Metabolite_Detected | – | –
COc1ccc(Cc2nc3cc(NC(=O)[C@H](N)Cc4ccccc4)ccc3o2)cc1 | 3.13 (≈ 1.26 µg/mL) | 3.13 (≈ 1.26 µg/mL) | – | – | – | – | –
COc1ccc(-c2nc3cc(C(=O)NC[C@H](N)Cc4ccccc4)ccc3o2)cc1 | 6.25 (≈ 2.51 µg/mL) | – | > 4 | – | – | 6.25 (≈ 2.51 µg/mL) | 1.2
N[C@H](CCc1ccccc1)C(=O)Nc1ccc2oc(-c3ccc(O)cc3)nc2c1 | 3.13 (≈ 1.21 µg/mL) | 3.13 (≈ 1.21 µg/mL) | – | – | – | – | –
N[C@H](Cc1ccccc1)C(=O)Nc1ccc2ocnc2c1 | > 50 | 25 (≈ 7.03 µg/mL) | – | – | – | – | –
N[C@H](Cc1ccccc1)C(=O)Nc1ccc2oc(-c3ccc(OC(F)(F)F)cc3)nc2c1 | 3.13 (≈ 1.38 µg/mL) | 3.13 (≈ 1.38 µg/mL) | – | – | – | – | –
CCOC(=O)COc1ccc(-c2nc3cc(NC(=O)[C@H](N)Cc4ccccc4)ccc3o2)cc1 | 3.13 (≈ 1.44 µg/mL) | 2.3 (≈ 1.06 µg/mL) | – | – | – | – | –
COc1ccc(-c2nc3cc(NC(=S)[C@H](N)Cc4ccccc4)ccc3o2)cc1 | 37 (≈ 14.9 µg/mL) | 19 (≈ 7.67 µg/mL) | – | – | – | – | –
COc1ccc(-c2nc3cc(-n4cc([C@H](N)Cc5ccccc5)nn4)ccc3o2)cc1 | 6.25 (≈ 2.57 µg/mL) | 6.25 (≈ 2.57 µg/mL) | > 4 | – | – | – | 0.65
COc1ccc(-c2nc3cc(NC[C@H](N)Cc4ccccc4)ccc3o2)cc1 | 12.5 (≈ 4.67 µg/mL) | 9.4 (≈ 3.51 µg/mL) | > 4 | – | – | – | < 0.1
COc1ccc(-c2nc3cc(NC(=O)[C@H](N)[C@@H](O)c4ccccc4)ccc3o2)cc1 | > 50 | 25 (≈ 10.1 µg/mL) | – | – | – | – | –

— ChEMBL document CHEMBL5236650, “Nonhydrolyzable d‑phenylalanine-benzoxazole derivatives retain antitubercular activity” (Bioorg Med Chem Lett, 2023)
